From US10844077B2, “Thiazolyl-containing compounds for treating proliferative diseases” (Dana-Farber Cancer Institute, Inc., priority 2014, dated 2020)
Read-outs that look alike come from different tables or passages of the source.

Assays:
Format in all cases: binding
broad panel of kinases [1] = molecular target: broad panel of kinases (Homo sapiens, UniProt Q92772); settings: CDKL2; 1 μM
broad panel of kinases [2] = molecular target: broad panel of kinases (Homo sapiens, UniProt O94804); settings: LOK; 1 μM
broad panel of kinases [3] = molecular target: broad panel of kinases (Homo sapiens, UniProt Q86YV6); settings: MYLK4; 1 μM
broad panel of kinases [4] = molecular target: broad panel of kinases (Homo sapiens, UniProt Q59H18); settings: TNNI3K; 1 μM
broad panel of kinases [5] = molecular target: broad panel of kinases (Homo sapiens, UniProt Q09013); settings: DMPK; 1 μM
broad panel of kinases [6] = molecular target: broad panel of kinases (Homo sapiens, UniProt O96013); settings: PAK4; 1 μM
broad panel of kinases [7] = molecular target: broad panel of kinases (Homo sapiens, UniProt P32298); settings: GRK4; 1 μM
broad panel of kinases [8] = molecular target: broad panel of kinases (Homo sapiens, UniProt Q15139); settings: PRKD1; 1 μM
broad panel of kinases [9] = molecular target: broad panel of kinases (Homo sapiens, UniProt Q13523); settings: PRP4; 1 μM
broad panel of kinases [10] = molecular target: broad panel of kinases (Homo sapiens, UniProt Q8TD08); settings: ERK8; 1 μM
broad panel of kinases [11] = molecular target: broad panel of kinases (Homo sapiens, UniProt Q9UK32); settings: 1 μM
broad panel of kinases [12] = molecular target: broad panel of kinases (Homo sapiens, UniProt Q16620); settings: TRKB; 1 μM
broad panel of kinases [13] = molecular target: broad panel of kinases (Homo sapiens, UniProt Q9UL54); settings: TAOK2; 1 μM
broad panel of kinases [14] = molecular target: broad panel of kinases (Homo sapiens, UniProt P00519, T315I); settings: 1 μM
broad panel of kinases [15] = molecular target: broad panel of kinases (Homo sapiens, UniProt P54762); settings: EPHB1; 1 μM
broad panel of kinases [16] = molecular target: broad panel of kinases (Homo sapiens, UniProt P28482); settings: ERK2; 1 μM
broad panel of kinases [17] = molecular target: broad panel of kinases (Homo sapiens, UniProt Q9NRM7); settings: LATS2; 1 μM
broad panel of kinases [18] = molecular target: broad panel of kinases (Homo sapiens, UniProt P23458); settings: 1 μM
broad panel of kinases [19] = molecular target: broad panel of kinases (Homo sapiens, UniProt Q99759); settings: MAP3K3; 1 μM
broad panel of kinases [20] = molecular target: broad panel of kinases (Homo sapiens, UniProt Q9UKI8); settings: TLK1; 1 μM
broad panel of kinases [21] = molecular target: broad panel of kinases (Homo sapiens, UniProt O43318); settings: TAK1; 1 μM
broad panel of kinases [22] = molecular target: broad panel of kinases (Homo sapiens, UniProt P41240); settings: CSK; 1 μM
broad panel of kinases [23] = molecular target: broad panel of kinases (Homo sapiens, UniProt P10721); settings: 1 μM
broad panel of kinases [24] = molecular target: broad panel of kinases (Homo sapiens, UniProt Q2M2I8); settings: AAK1; 1 μM
broad panel of kinases [25] = molecular target: broad panel of kinases (Homo sapiens, UniProt Q00537); settings: PCTK2; 1 μM
broad panel of kinases [26] = molecular target: broad panel of kinases (Homo sapiens, UniProt P0C264); settings: SgK110; 1 μM
broad panel of kinases [27] = molecular target: broad panel of kinases (Homo sapiens, UniProt Q8IY84); settings: NIM1; 1 μM
broad panel of kinases [28] = molecular target: broad panel of kinases (Homo sapiens, UniProt Q9HCP0); settings: CSNK1G1; 1 μM
broad panel of kinases [29] = molecular target: broad panel of kinases (Homo sapiens, UniProt Q9H3Y6); settings: SRMS; 1 μM
broad panel of kinases [30] = molecular target: broad panel of kinases (Homo sapiens, UniProt P36888, D835Y); settings: FLT3(D835Y); 1 μM
broad panel of kinases [31] = molecular target: broad panel of kinases (Homo sapiens, UniProt Q9BYT3); settings: STK33; 1 μM
broad panel of kinases [32] = molecular target: broad panel of kinases (Homo sapiens, UniProt P43405); settings: SYK; 1 μM
broad panel of kinases [33] = molecular target: broad panel of kinases (Homo sapiens, UniProt P42336, M1043I); settings: PIK3CA(M1043I); 1 μM
broad panel of kinases [34] = molecular target: broad panel of kinases (Homo sapiens, UniProt P07333); settings: 1 μM
broad panel of kinases [35] = molecular target: broad panel of kinases (Homo sapiens, UniProt P43403); settings: ZAP70; 1 μM
broad panel of kinases [36] = molecular target: broad panel of kinases (Homo sapiens, UniProt Q9Y2H9); settings: MAST1; 1 μM

Chain of broad panel of kinases (Homo sapiens, UniProt P10721) (P10721 26-976 limits assumed): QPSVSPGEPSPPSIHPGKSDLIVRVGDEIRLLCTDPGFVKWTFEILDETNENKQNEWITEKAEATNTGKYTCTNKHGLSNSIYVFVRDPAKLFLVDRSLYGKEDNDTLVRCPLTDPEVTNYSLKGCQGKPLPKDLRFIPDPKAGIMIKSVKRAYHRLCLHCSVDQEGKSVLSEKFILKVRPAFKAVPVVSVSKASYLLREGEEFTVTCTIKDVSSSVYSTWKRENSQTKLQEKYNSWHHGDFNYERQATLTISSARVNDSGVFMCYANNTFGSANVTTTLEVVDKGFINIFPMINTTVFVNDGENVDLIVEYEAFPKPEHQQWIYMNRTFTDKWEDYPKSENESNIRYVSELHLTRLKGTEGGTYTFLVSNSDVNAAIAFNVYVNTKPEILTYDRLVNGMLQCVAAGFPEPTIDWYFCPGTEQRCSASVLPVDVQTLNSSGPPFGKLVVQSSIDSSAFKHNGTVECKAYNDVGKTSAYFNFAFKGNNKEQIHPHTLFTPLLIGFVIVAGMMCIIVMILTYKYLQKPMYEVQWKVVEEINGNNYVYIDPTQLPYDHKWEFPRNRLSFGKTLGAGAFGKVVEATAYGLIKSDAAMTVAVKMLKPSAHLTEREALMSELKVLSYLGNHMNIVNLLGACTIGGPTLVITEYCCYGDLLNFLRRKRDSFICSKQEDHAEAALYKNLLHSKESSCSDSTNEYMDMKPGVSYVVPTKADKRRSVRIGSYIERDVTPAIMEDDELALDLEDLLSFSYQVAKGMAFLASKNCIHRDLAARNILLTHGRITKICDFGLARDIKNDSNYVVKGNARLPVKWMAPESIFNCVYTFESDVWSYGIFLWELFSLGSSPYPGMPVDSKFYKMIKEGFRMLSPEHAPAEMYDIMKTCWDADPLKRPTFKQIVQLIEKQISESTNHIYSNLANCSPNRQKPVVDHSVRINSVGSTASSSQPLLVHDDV
Chain of broad panel of kinases (Homo sapiens, UniProt P07333) (P07333 20-972 limits assumed): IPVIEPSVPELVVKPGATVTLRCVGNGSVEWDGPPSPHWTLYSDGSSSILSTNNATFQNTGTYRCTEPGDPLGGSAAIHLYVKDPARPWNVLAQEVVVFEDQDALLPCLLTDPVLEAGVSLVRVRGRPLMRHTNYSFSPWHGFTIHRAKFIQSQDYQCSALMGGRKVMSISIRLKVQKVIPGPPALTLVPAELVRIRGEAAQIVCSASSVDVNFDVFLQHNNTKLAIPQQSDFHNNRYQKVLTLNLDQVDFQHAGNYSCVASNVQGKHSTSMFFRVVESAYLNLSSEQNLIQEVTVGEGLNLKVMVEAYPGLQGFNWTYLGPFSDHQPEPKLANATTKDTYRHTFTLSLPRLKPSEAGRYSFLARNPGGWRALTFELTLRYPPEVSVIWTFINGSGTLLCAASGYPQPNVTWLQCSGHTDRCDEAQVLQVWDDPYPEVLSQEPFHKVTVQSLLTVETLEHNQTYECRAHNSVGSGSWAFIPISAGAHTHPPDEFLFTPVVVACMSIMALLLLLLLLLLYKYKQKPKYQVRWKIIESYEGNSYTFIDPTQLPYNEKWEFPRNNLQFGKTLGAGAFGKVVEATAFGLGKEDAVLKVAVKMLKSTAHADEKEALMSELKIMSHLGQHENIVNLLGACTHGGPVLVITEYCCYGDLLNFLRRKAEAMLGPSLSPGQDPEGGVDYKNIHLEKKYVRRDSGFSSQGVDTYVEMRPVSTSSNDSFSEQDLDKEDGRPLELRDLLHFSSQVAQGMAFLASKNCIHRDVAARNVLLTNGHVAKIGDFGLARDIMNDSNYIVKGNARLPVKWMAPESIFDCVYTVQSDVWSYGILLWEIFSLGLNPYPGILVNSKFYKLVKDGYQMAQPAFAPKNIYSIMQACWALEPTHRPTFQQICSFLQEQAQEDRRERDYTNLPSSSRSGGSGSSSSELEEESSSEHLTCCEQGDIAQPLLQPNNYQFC
Chain of broad panel of kinases (Homo sapiens, UniProt P41240) (P41240 2-450 limits assumed): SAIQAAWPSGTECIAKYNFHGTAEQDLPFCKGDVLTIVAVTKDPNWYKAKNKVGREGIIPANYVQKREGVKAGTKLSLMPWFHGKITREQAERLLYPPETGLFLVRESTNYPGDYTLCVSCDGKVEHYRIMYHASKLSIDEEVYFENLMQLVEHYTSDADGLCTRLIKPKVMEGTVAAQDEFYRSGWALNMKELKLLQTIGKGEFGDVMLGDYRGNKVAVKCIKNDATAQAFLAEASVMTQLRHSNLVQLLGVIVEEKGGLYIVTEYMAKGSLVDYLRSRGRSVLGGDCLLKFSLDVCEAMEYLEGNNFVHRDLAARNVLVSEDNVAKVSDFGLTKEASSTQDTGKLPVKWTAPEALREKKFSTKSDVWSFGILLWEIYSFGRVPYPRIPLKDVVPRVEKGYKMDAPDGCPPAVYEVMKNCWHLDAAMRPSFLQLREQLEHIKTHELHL
Chain of broad panel of kinases (Homo sapiens, UniProt Q13523) (Q13523 2-1007 limits assumed): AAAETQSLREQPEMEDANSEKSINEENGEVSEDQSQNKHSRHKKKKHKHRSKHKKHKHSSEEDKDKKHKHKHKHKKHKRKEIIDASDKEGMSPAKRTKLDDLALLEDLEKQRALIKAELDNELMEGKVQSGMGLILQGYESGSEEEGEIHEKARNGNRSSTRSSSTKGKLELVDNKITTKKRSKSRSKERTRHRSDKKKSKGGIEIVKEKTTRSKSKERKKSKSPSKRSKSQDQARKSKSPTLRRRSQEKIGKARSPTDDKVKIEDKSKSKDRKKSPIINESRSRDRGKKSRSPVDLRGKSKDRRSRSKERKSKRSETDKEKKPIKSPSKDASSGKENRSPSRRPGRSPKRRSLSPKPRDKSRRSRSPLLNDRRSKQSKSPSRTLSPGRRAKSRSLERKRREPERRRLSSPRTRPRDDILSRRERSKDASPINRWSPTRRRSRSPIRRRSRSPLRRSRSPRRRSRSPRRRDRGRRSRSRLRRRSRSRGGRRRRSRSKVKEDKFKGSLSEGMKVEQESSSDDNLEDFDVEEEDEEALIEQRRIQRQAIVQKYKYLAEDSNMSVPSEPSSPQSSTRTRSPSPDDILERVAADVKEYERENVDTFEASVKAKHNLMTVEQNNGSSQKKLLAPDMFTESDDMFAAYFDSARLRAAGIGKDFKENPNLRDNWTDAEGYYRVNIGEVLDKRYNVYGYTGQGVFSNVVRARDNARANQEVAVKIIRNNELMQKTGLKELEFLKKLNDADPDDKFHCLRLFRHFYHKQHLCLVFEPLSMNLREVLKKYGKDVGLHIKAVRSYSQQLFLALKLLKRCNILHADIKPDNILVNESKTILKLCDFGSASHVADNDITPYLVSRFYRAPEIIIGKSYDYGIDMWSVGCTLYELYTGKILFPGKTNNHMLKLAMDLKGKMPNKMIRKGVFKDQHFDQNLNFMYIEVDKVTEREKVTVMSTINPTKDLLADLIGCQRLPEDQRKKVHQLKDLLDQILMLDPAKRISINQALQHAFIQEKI
Chain of broad panel of kinases (Homo sapiens, UniProt P54762) (P54762 18-984 limits assumed): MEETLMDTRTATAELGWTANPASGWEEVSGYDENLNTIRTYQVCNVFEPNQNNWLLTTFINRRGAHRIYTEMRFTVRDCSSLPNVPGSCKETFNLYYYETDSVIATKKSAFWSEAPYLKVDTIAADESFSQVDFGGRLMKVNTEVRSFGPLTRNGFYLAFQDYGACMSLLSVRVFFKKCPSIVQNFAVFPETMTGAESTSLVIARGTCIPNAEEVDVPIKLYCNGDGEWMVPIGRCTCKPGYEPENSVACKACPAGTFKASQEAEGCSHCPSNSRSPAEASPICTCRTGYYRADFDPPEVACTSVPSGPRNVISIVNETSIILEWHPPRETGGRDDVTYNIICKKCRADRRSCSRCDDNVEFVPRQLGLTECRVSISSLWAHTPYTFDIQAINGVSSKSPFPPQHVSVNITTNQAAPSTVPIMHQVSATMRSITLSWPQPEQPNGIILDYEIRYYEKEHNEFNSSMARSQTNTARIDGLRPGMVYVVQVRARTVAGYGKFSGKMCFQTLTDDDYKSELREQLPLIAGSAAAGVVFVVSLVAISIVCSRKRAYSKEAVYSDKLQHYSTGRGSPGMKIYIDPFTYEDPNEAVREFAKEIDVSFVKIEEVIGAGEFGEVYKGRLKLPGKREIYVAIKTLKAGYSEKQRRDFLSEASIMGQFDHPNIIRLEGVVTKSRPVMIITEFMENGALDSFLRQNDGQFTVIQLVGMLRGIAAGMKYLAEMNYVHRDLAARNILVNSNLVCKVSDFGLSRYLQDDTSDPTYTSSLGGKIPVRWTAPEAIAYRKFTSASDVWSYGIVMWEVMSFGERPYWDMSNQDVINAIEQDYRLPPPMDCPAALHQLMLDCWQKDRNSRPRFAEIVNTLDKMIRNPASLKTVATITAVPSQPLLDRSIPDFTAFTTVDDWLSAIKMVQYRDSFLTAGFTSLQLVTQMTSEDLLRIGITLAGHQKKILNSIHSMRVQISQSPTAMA
Chain of broad panel of kinases (Homo sapiens, UniProt P28482) (P28482 2-360 limits assumed): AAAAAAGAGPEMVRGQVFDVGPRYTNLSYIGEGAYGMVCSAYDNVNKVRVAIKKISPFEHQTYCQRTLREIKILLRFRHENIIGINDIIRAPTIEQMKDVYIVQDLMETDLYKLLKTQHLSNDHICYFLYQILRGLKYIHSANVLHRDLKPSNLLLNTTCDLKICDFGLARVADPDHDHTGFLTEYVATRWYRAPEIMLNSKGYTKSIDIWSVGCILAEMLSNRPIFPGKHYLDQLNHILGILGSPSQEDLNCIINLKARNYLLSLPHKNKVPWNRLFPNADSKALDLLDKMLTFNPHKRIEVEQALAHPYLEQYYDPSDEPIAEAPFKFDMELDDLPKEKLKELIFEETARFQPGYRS

## C=CC(=O)N1CC[C@H](Nc2nc(CN3CCOCC3)cc(Nc3ncc(C(=O)Nc4c(C)cccc4C)s3)n2)C1 [Example I-2]
Broad panel of kinases [1]
  percent of control binding remaining (lower = stronger binding): 88%
Broad panel of kinases [2]
  percent of control binding remaining (lower = stronger binding): 96%
Broad panel of kinases [3]
  percent of control binding remaining (lower = stronger binding): 98%
Broad panel of kinases [4]
  percent of control binding remaining (lower = stronger binding): 16%
Broad panel of kinases [5]
  percent of control binding remaining (lower = stronger binding): 98%
Broad panel of kinases [6]
  percent of control binding remaining (lower = stronger binding): 100%
Broad panel of kinases [7]
  percent of control binding remaining (lower = stronger binding): 100%
Broad panel of kinases [8]
  percent of control binding remaining (lower = stronger binding): 93%
Broad panel of kinases [9]
  percent of control binding remaining (lower = stronger binding): 95%
Broad panel of kinases [10]
  percent of control binding remaining (lower = stronger binding): 97%
Broad panel of kinases [11]; RSK4(Kin.Dom.1-N-terminal)
  percent of control binding remaining (lower = stronger binding): 100%
Broad panel of kinases [11]; RSK4(Kin.Dom.2-C-terminal)
  percent of control binding remaining (lower = stronger binding): 100%
Broad panel of kinases [12]
  percent of control binding remaining (lower = stronger binding): 94%
Broad panel of kinases [13]
  percent of control binding remaining (lower = stronger binding): 65%
Broad panel of kinases [14]; ABL1(T315I)-nonphosphorylated
  percent of control binding remaining (lower = stronger binding): 95%
Broad panel of kinases [14]; ABL1(T315I)-phosphorylated
  percent of control binding remaining (lower = stronger binding): 69%
Broad panel of kinases [15]
  percent of control binding remaining (lower = stronger binding): 0.35%
Broad panel of kinases [16]
  percent of control binding remaining (lower = stronger binding): 100%
Broad panel of kinases [17]
  percent of control binding remaining (lower = stronger binding): 100%
Broad panel of kinases [18]; JAK1(JH1domain-catalytic)
  percent of control binding remaining (lower = stronger binding): 100%
Broad panel of kinases [18]; JAK1(JH2domain-pseudokinase)
  percent of control binding remaining (lower = stronger binding): 100%
Broad panel of kinases [19]
  percent of control binding remaining (lower = stronger binding): 79%
Broad panel of kinases [20]
  percent of control binding remaining (lower = stronger binding): 100%
Broad panel of kinases [21]
  percent of control binding remaining (lower = stronger binding): 95%
Broad panel of kinases [22]
  percent of control binding remaining (lower = stronger binding): 1.6%
Broad panel of kinases [23]; KIT-autoinhibited
  percent of control binding remaining (lower = stronger binding): 1.8%
Broad panel of kinases [23]; KIT
  percent of control binding remaining (lower = stronger binding): 0%
Broad panel of kinases [24]
  percent of control binding remaining (lower = stronger binding): 97%
Broad panel of kinases [25]
  percent of control binding remaining (lower = stronger binding): 100%
Broad panel of kinases [26]
  percent of control binding remaining (lower = stronger binding): 59%
Broad panel of kinases [27]
  percent of control binding remaining (lower = stronger binding): 93%
Broad panel of kinases [28]
  percent of control binding remaining (lower = stronger binding): 100%
Broad panel of kinases [29]
  percent of control binding remaining (lower = stronger binding): 7.6%
Broad panel of kinases [30]
  percent of control binding remaining (lower = stronger binding): 97%
Broad panel of kinases [31]
  percent of control binding remaining (lower = stronger binding): 86%
Broad panel of kinases [32]
  percent of control binding remaining (lower = stronger binding): 86%
Broad panel of kinases [33]
  percent of control binding remaining (lower = stronger binding): 96%
Broad panel of kinases [34]; CSF1R-autoinhibited
  percent of control binding remaining (lower = stronger binding): 1.4%
Broad panel of kinases [34]; CSF1R
  percent of control binding remaining (lower = stronger binding): 2.6%
Broad panel of kinases [35]
  percent of control binding remaining (lower = stronger binding): 99%
Broad panel of kinases [36]
  percent of control binding remaining (lower = stronger binding): 98%

## C=CC(=O)N1CC[C@H](Nc2nccc(Nc3ncc(C(=O)Nc4c(C)cccc4C)s3)n2)C1 [Example I-3]
Broad panel of kinases [1]
  percent of control binding remaining (lower = stronger binding): 78%
Broad panel of kinases [2]
  percent of control binding remaining (lower = stronger binding): 97%
Broad panel of kinases [3]
  percent of control binding remaining (lower = stronger binding): 100%
Broad panel of kinases [4]
  percent of control binding remaining (lower = stronger binding): 44%
Broad panel of kinases [5]
  percent of control binding remaining (lower = stronger binding): 98%
Broad panel of kinases [6]
  percent of control binding remaining (lower = stronger binding): 100%
Broad panel of kinases [7]
  percent of control binding remaining (lower = stronger binding): 100%
Broad panel of kinases [8]
  percent of control binding remaining (lower = stronger binding): 94%
Broad panel of kinases [9]
  percent of control binding remaining (lower = stronger binding): 100%
Broad panel of kinases [10]
  percent of control binding remaining (lower = stronger binding): 99%
Broad panel of kinases [11]; RSK4(Kin.Dom.1-N-terminal)
  percent of control binding remaining (lower = stronger binding): 100%
Broad panel of kinases [11]; RSK4(Kin.Dom.2-C-terminal)
  percent of control binding remaining (lower = stronger binding): 97%
Broad panel of kinases [12]
  percent of control binding remaining (lower = stronger binding): 92%
Broad panel of kinases [13]
  percent of control binding remaining (lower = stronger binding): 67%
Broad panel of kinases [14]; ABL1(T315I)-nonphosphorylated
  % change compared to control: 100%
Broad panel of kinases [14]; ABL1(T315I)-phosphorylated
  % change compared to control: 70%
Broad panel of kinases [15]
  percent of control binding remaining (lower = stronger binding): 0.2%
Broad panel of kinases [16]
  percent of control binding remaining (lower = stronger binding): 100%
Broad panel of kinases [17]
  percent of control binding remaining (lower = stronger binding): 92%
Broad panel of kinases [18]; JAK1(JH1domain-catalytic)
  percent of control binding remaining (lower = stronger binding): 100%
Broad panel of kinases [18]; JAK1(JH2domain-pseudokinase)
  percent of control binding remaining (lower = stronger binding): 100%
Broad panel of kinases [19]
  percent of control binding remaining (lower = stronger binding): 94%
Broad panel of kinases [20]
  percent of control binding remaining (lower = stronger binding): 100%
Broad panel of kinases [21]
  percent of control binding remaining (lower = stronger binding): 90%
Broad panel of kinases [22]
  percent of control binding remaining (lower = stronger binding): 1.6%
Broad panel of kinases [23]; KIT-autoinhibited
  percent of control binding remaining (lower = stronger binding): 2.6%
Broad panel of kinases [23]; KIT
  percent of control binding remaining (lower = stronger binding): 0%
Broad panel of kinases [24]
  percent of control binding remaining (lower = stronger binding): 100%
Broad panel of kinases [25]
  percent of control binding remaining (lower = stronger binding): 81%
Broad panel of kinases [26]
  percent of control binding remaining (lower = stronger binding): 95%
Broad panel of kinases [27]
  percent of control binding remaining (lower = stronger binding): 84%
Broad panel of kinases [28]
  percent of control binding remaining (lower = stronger binding): 100%
Broad panel of kinases [29]
  percent of control binding remaining (lower = stronger binding): 12%
Broad panel of kinases [30]
  percent of control binding remaining (lower = stronger binding): 100%
Broad panel of kinases [31]
  percent of control binding remaining (lower = stronger binding): 96%
Broad panel of kinases [32]
  percent of control binding remaining (lower = stronger binding): 81%
Broad panel of kinases [33]
  percent of control binding remaining (lower = stronger binding): 100%
Broad panel of kinases [34]; CSF1R-autoinhibited
  percent of control binding remaining (lower = stronger binding): 3.2%
Broad panel of kinases [34]; CSF1R
  percent of control binding remaining (lower = stronger binding): 3.3%
Broad panel of kinases [35]
  percent of control binding remaining (lower = stronger binding): 100%
Broad panel of kinases [36]
  percent of control binding remaining (lower = stronger binding): 93%
